{
  "source": "patent EP0462621A2",
  "about": "“Use of particular compounds for manufacture of pharmaceutical formulations for treatment against various parasites, mycoplasmas, other indications and other infections” (Prendergast, Patrick Thomas, priority 1990, dated 1991); for Activity, mouse/ hamster models: key: - no/poor activity,; + fair/moderate activity,; ++ good/excellent activity; for activity, procyclic TRY: key: - no/poor activity,; + fair/moderate activity,; ++ good/excellent activity",
  "key": {"L major/L mexicana [1]": {"system": "L major/L mexicana", "experiment": "Amastigotes (AM) in mouse or human macrophages (mos), in-vitro", "format": "cell-based", "details": "Lm., Amastigote", "description": "(§1) Amastigotes of Leishmania can be cultivated in a wide range of mammalian cells, some of which may be used in in-vitro screens. These include (1) a Sticker dog sarcoma (fibroblast) cell line, (2) transformed rodent macrophage cell lines, (3) primary isolated mouse peritoneal macrophages (MP mo), and (4) human monocyte-derived macrophages (HM mo). The methods are similar for all models. Amastigote or promastigote infected cells are maintained in a medium containing the drug for 4-7 days, at 37 C for L. donovani and 33-35 C for L. major and L. mexicana. Drug activity is then assessed by counting (I) the number of infected host cells and/or (II) the number of amastigotes/100 host cells.\n(§2) In-vitro and in-vivo models were used to test activities of a selection of many compounds. Those activities are summarized in Tables 1-3, showing variation between systems and species. Activities measured in the MP mo and HM mo models have shown the best correlation with results obtained in hamster and mouse models."}, "L donovani [2]": {"system": "L donovani", "experiment": "Amastigotes (AM) in mouse or human macrophages (mos), in-vitro", "format": "cell-based", "details": "Ld., Amastigote", "description": "as §1, §2"}, "HIV-I": {"system": "HIV-I", "experiment": "Experiment la(a): macrophage cells, HIV-I, p24 antigen capture radio-immunoassay", "format": "cell-based", "details": "Human immunodeficiency virus 1, Monocyte; Monocytes; HIV-1; as read from Figure 15"}, "T. cruzi [3]": {"system": "T. cruzi", "experiment": "T. cruzi epimastigote (EPI) in-vitro screen", "format": "cell-based", "method": "(§3) In-vitro chemotherapy screens have for many years used models involving three stages of the T. cruzi life cycle: • (1) Epimastigote. Dividing populations are easily cultivated in a range of defined and semi-defined media, but are equivalent to a vector stage of the life cycle. • (2) Trypomastigote. These are isolated from a rodent host and can be maintained as a non-dividing population for 24-48 h in media. • (3) Amastigote. Dividing populations can be cultivated in muscle cells, fibroblasts and macrophages, following infection with trypomastigotes. After the initial infection, there is normally a period of 4-5 days during which the amastigotes divide before transforming, via the epimastigote stage, back to trypomastigotes which escape from the cell. Drug activity is measured during this 4-5 day period. A dividing host cell population, low infection rate, and the presence of trypomastigotes in the overlay can complicate the interpretation of results."}, "L major/L mexicana [4]": {"system": "L major/L mexicana", "experiment": "Leishmania mouse/hamster models, in-vivo", "details": "Lm.", "description": "as §2"}, "L donovani [5]": {"system": "L donovani", "experiment": "Leishmania mouse/hamster models, in-vivo", "details": "Ld.", "description": "as §2"}, "[6]": {"experiment": "Solubility of IPA in water", "format": "physicochemical"}, "[7]": {"experiment": "Case study two: HIV positive patient, IPA orally", "format": "in vivo, human", "protocol": "In another case study, […], a homosexual person, was diagnosed HIV positive in June, 1986. […] was also diagnosed as having hepatitis at that time. Beginning on May 7, 1990, IPA was administered orally to […] On May 7, 1990, […] was experiencing (1) weight loss, (2) night sweats, (3) thrush, (4) fungal infections, (5) pneumonia, (6) diarrhea, and (7) hairy leukoplakia.\nPrior to treatment with IPA, V.T. had experienced diarrhea and night sweats for the previous six weeks. […] […] […] As of July 26, 1990, V.T.'s helper/suppressor ration was 0.93."}, "T. cruzi [8]": {"system": "T. cruzi", "experiment": "T. cruzi trypomastigote (TRY) in-vitro screen", "format": "cell-based", "method": "as §3"}, "[9]": {"experiment": "Case study one: AIDS patient treated with IPA", "format": "in vivo, human", "details": "IPA from February 1989", "protocol": "A case study of an AIDS patient one, was conducted. Patient one began treatment with IPA in February 1989, while in a nearly moribund condition, suffering from depression, exhaustion, bronchial infection, severe diarrhoea, severe weight loss (weight in February was 98 lbs.), complete loss of appetite and spiked fever. […] By March 21, 1989, patient one stated that they felt cured and abruptly (unilaterally) stopped taking IPA, resulting in dramatic deterioration of their condition. In May, 1989, patient one resumed IPA therapy, and experienced dramatic recovery. At the end of May, 1989, patient one again stopped taking IPA, and their condition again deteriorated. Again IPA treatment was restarted, and patient one's condition improved. In early June, 1989, patient one again stopped IPA therapy and died several weeks later.\nThe study concluded that patient one would have apparently enjoyed appreciable therapeutic benefits from IPA if they had conscientiously and continuously received IPA medication."}, "[10]": {"system": "T.b. brucei, T.b. gambiense and T.b. rhodesiense", "experiment": "Procyclic trypomastigote (TRY) in-vitro screen", "format": "cell-based", "protocol": "Primary screening for new trypanocides has made extensive use of rodent systems, in which host survival time is a simple indicator of drug activity. In-vitro screens have used a variety of trypomastigote types (see Table 3, below). […] Most early in-vitro screens employed a short test in which bloodstream trypomastigotes were isolated from an infected rodent and maintained for up to 24 h in a simple drug-containing media. Two significant modifications of this technique include maintaining isolated bloodstream trypomastigotes in drug-containing media for 3-4 hours at 37° C in micro-titre plates and their subsequent viability assessed by the uptake of radiolabelled precursors or motility and infectivity to mice.\nas §2"}},
  "data": [
    {"smiles": "CC(C)=CCNc1ncnc2c1ncn2[C@@H]1O[C@H](CO)[C@@H](O)[C@H]1O", "note": "[IPA, N^6-(Δ^2-isopentenyl) adenosine]", "values": [
      {"measurement": "Activity, AM in mouse or human mos", "setting": "L major/L mexicana [1]", "value": "+ +"},
      {"measurement": "Activity, AM in mouse or human mos", "setting": "L donovani [2]", "value": "+ +"},
      {"measurement": "IC50", "setting": "HIV-I", "value": 6, "unit": "µM"},
      {"measurement": "IC90", "setting": "HIV-I", "value": 10, "unit": "µM"},
      {"measurement": "activity, EPI", "setting": "T. cruzi [3]; T. cruzi strain MR", "value": "++(Y,MR, Sonya)"},
      {"measurement": "activity, EPI", "setting": "T. cruzi [3]; T. cruzi strain Sonya", "value": "++(Y,MR, Sonya)"},
      {"measurement": "activity, EPI", "setting": "T. cruzi [3]; T. cruzi strain Y", "value": "++(Y,MR, Sonya)"},
      {"measurement": "Activity, mouse/ hamster models", "setting": "L major/L mexicana [4]", "value": "-"},
      {"measurement": "Activity, mouse/ hamster models", "setting": "L donovani [5]", "value": "+"},
      {"measurement": "solubility in water", "setting": "[6]", "value": "does not readily dissolve in water"},
      {"measurement": "toxic side effects", "setting": "[7]", "value": "no permanent toxic side effects"},
      {"measurement": "weight stabilized at", "setting": "[7]", "value": 133, "unit": "lbs"},
      {"measurement": "hairy leukoplakia", "setting": "[7]; IPA orally", "value": "complete remission"},
      {"measurement": "helper/suppressor ratio", "setting": "[7]; July 26, 1990", "value": 0.93},
      {"measurement": "weight", "setting": "[7]; June 11, 1990, 119 lbs on May 7, 1990 (start of IPA)", "value": 132, "unit": "lbs"},
      {"measurement": "helper/suppressor ratio", "setting": "[7]; June 21, 1990, 0.53 on May 7, 1990", "value": 0.65},
      {"measurement": "T4 count", "setting": "[7]; June 21, 1990, 207 on May 7, 1990", "value": 330},
      {"measurement": "time in which diarrhea and night sweats cleared", "setting": "[7]; after the beginning of the treatment, symptoms for the previous six weeks", "value": "≤ 48", "unit": "h"},
      {"measurement": "weight gain", "setting": "[7]; over the first month of treatment", "value": "about 0.5 lbs per day"},
      {"measurement": "activity, TRY", "setting": "T. cruzi [8]; T. cruzi strain Sonya", "value": "+ (Y,Sonya)"},
      {"measurement": "activity, TRY", "setting": "T. cruzi [8]; T. cruzi strain Y", "value": "+ (Y,Sonya)"},
      {"measurement": "T and B lymphocyte competence", "setting": "[9]", "value": "major rapid recovery"},
      {"measurement": "activity, procyclic TRY", "setting": "[10]", "value": "+"}
    ]}
  ]
}
